Experimental data taken from PMC3151534 (Bioorganic & medicinal chemistry, 2010).
Values joined by “and” are separate entries in the source; they are usually repeats but may differ in a detail not shown here. Equal entries are not always repeated.

Columns and labels:
tumor cells = details: cited from earlier work
in vitro = details: human; for recovery at 90 min, 10 μM: Caco-2
[1] = system: STAT3–STAT3:DNA binding activity in NIH3T3/vSrc; assay type: cell-based, mouse; details: 100 μM; for suppression of STAT3-DNA binding activity (in words): 6 and 24 hrs
STAT5 = STAT5 fluorescence polarization; assay type: binding; details: data not shown
[2] = Permeability and efflux analysis in Caco-2 cells; details: human
STAT3-SH2 domain = STAT3-SH2 domain (Mus musculus, UniProt P42227); assay: STAT3 fluorescence polarization; assay type: binding, murine; details: non-phosphorylated analogs; data not shown
Sequence of STAT3-SH2 domain (P42227 whole entry, the tested form may be a part): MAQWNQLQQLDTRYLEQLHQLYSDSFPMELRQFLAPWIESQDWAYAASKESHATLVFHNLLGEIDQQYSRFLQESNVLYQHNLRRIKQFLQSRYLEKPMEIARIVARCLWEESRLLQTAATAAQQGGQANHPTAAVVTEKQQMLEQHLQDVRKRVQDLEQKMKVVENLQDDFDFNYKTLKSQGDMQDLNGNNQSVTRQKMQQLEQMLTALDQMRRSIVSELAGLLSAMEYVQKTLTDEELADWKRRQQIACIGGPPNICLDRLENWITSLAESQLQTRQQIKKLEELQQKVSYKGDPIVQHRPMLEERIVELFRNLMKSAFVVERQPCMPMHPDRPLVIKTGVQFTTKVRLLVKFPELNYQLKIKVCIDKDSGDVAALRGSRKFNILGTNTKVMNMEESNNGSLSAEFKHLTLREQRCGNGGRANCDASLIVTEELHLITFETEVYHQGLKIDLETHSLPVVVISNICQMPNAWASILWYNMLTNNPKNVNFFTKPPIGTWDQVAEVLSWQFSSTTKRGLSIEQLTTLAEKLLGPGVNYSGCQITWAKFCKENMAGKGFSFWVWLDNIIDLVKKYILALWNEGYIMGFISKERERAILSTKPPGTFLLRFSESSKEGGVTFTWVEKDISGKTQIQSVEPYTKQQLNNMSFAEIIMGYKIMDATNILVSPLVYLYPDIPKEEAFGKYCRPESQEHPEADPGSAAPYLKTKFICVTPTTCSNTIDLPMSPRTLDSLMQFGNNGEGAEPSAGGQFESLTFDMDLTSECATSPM

[3] = system: DU145, Panc-1, NIH3T3/vSrc and MDA468 cells; assay type: cell-based; details: 24 hrs, lower concentrations; data not shown
gp130 (Homo sapiens) = gp130 (Homo sapiens) (UniProt P40189); assay: SPR; details: cited from earlier work
Sequence of gp130 (Homo sapiens) (P40189 whole entry, looked up): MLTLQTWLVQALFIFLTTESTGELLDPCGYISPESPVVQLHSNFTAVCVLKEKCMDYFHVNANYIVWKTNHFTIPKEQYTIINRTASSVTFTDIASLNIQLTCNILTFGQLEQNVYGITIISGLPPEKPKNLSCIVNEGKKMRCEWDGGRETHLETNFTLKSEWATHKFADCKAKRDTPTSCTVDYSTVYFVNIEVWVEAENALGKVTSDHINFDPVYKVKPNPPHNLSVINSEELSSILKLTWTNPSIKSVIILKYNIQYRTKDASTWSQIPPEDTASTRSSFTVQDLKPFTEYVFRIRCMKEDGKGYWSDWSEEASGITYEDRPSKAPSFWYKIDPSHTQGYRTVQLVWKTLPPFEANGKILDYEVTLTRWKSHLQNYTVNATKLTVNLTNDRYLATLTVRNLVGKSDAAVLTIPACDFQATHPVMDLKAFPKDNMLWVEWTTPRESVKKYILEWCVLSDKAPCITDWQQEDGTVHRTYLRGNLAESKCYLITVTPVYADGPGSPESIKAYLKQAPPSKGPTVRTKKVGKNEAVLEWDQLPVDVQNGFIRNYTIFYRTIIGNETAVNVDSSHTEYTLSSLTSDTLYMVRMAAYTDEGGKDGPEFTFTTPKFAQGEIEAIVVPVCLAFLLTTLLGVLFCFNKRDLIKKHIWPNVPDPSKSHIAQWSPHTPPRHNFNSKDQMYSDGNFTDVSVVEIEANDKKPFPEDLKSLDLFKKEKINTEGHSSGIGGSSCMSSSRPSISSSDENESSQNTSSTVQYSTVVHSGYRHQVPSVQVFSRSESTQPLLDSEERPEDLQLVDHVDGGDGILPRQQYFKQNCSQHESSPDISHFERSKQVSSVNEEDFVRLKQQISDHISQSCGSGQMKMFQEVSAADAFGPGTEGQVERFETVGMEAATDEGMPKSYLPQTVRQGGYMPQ

Sequence of STAT3 (P40763 2-770): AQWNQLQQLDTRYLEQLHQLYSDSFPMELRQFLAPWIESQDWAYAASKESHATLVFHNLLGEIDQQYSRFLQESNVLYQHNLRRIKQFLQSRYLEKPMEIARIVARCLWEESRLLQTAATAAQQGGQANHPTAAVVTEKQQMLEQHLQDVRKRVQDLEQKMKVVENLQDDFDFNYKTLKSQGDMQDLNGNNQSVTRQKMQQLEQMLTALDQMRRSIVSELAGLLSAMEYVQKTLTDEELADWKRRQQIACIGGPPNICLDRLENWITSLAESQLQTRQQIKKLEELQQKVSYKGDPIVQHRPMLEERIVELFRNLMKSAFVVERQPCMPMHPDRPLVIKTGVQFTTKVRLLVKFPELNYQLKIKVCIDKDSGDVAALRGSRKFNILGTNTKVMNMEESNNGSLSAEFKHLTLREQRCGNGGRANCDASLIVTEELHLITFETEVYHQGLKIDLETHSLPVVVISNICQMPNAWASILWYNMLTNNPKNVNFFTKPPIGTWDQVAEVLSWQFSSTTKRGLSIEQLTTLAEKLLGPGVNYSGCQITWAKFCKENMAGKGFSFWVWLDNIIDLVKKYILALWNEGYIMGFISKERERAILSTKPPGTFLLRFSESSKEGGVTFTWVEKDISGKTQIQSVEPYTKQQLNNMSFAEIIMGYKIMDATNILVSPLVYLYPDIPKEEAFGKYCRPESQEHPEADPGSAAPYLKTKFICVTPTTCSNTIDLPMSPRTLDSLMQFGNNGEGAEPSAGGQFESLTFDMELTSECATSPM

Compound | recovery at 90 min, 10 μM (in vitro) [%] | STAT3 activity after 24 h [1] | effect on STAT5 in FP assay (STAT5) | Papp at 90 min, 10 μM [2] [×10⁻⁶ cm/s] | suppression of STAT3-DNA binding activity (in words) [1] | inhibition of the STAT3–phosphopeptide complex (FP) (STAT3-SH2 domain) | further results
CC(C)C[C@H](NC(=O)[C@H](Cc1ccc(OP(=O)(O)O)cc1)NC(=O)c1ccc(C#N)cc1)C(=O)O [ISS610] |  |  |  |  |  |  | dosage required for cellular activities (tumor cells): mM dosages
CC(C)C[C@H](NC(=O)[C@H](Cc1ccc(OP(=O)(O)O)cc1)NC(=O)c1ccc(C#N)cc1)C(=O)Nc1ccc(C(=O)NCc2ccccc2)c(-c2ccc(C(N)=O)cc2)c1 [Inhibitor 14aa, 4-((S)-3-((S)-1-(6-(benzylcarbamoyl)-4′-carbamoylbiphenyl-3-ylamino)-4-methyl-1-oxopentan-2-ylamino)-2-(4-cyanobenzamido)-3-oxopropyl)phenyl dihydrogen phosphate] | 1 to 2 | partially recovered | no effect |  |  |  | suppression of STAT3-DNA binding activity ([1]; after 6 h): 80% and > 80%
CC(C)C[C@H](NC(=O)[C@H](Cc1ccc(O)cc1)NC(=O)c1ccc(C#N)cc1)C(=O)Nc1ccc(C(=O)NCc2ccccc2)c(-c2ccc(C(N)=O)cc2)c1 [Inhibitor 14aa-OH] |  |  |  | < 2 | almost the same potency as 14aa | neither peptidomimetic inhibited | 
CC(C)C[C@H](NC(=O)[C@H](Cc1ccc(OP(=O)(O)O)cc1)NC(=O)c1ccc(C#N)cc1)C(=O)Nc1cc(C(=O)NCc2ccccc2)cc(-c2ccc(C(N)=O)cc2)c1 [Inhibitor 14ba, 4-((S)-3-(((S)-1-((5-(benzylcarbamoyl)-4′-carbamoyl-[1,1′-biphenyl]-3-yl)amino)-4-methyl-1-oxopentan-2-yl)amino)-2-(4-cyanobenzamido)-3-oxopropyl)phenyl dihydrogen phosphate] | 1 to 2 | partially recovered | no effect |  |  |  | Papp A→B at 90 min, 10 μM (in vitro; Caco-2, pH 7.4): < 0.5 ×10⁻⁶ cm/s; anti-cancer activity (cell viability, in words) [3]: only limited anti-cancer activity
CC(C)C[C@H](NC(=O)[C@H](Cc1ccc(O)cc1)NC(=O)c1ccc(C#N)cc1)C(=O)Nc1cc(C(=O)NCc2ccccc2)cc(-c2ccc(C(N)=O)cc2)c1 [Inhibitor 14ba-OH, N^3-benzyl-5-((S)-2-((S)-2-(4-cyanobenzamido)-3-(4-hydroxyphenyl)propanamido)-4-methylpentanamido)-[1,1′-biphenyl]-3,4′-dicarboxamide] |  |  |  | < 2 | negligible disruption | neither peptidomimetic inhibited | 
STAT3 (from UniProt P40763) |  |  |  |  |  |  | Kd (gp130 (Homo sapiens)): 24 nM
